The values that follow come from patent US8476317B2, “N-alkylcarbonyl-amino acid ester compounds and their use for cough and pharyngitis” (priority 2011, dated 2013).

The test system of data set [1] is philtrum skin. The data set can be described thus: Cooling on facial (philtrum) skin, ointment. Format: in vivo, human. Conditions: for Philtrum Skin (min), duration of cooling: 5 mg/ml in Aquaphor ointment. The source says:
A reliable place for topical application is the skin above the upper lip (above the vermilion border of the lips), on the philtrum, lateral to the philtrum until the nasolabial folds, and on the lower nostrils (subnasale). This part of the face is known to be densely innervated with cold receptors, second only to the surfaces of the eyeball and anogenitalia. At this locus, tingling, cool and cold sensations in the skin may be experienced and rated for time of onset and intensity.
The intervals for recording sensations are 5 to 10 minutes, until two successive zeroes are obtained. The results (shown in FIG. 1) are averaged values of 4 to 6 separate trials in the same individual. The data are plotted using SigmaPlot® (Systat Software, Point Richmond Calif.) and a smoothing function with a negative exponential was used for analysis and statistical fit of the results. Confirmatory trials of cooling action of the long-acting NACE compounds were obtained in 2 to 4 individuals but not quantified for some because of the large number of chemicals that were evaluated.
The onset of drug action is taken as the time to reach 2 units of coolness intensity, and offset of drug action is the time when coolness intensity drops below 2, after previously surpassing 2 units. The duration of cooling action is defined as the offset time minus the onset time. […] The quality of the sensation is noted, for example, as pure refreshing coolness, or if the sensation is accompanied by irritation (stinging or burning). The quality of the sensation is not rated for intensity.
For bioassay on the skin, approximately 30 mg was stirred and dissolved in 3 g of warm liquid Aquaphor® ointment to a yield a 40 mM (˜1% wt/vol) ointment. The exact amount was adjusted so that the molar equivalent was about 35 to 40 mM. After cooling, 40 to 70 mg of the solid ointment was placed on the tip of a plastic stick and applied to the skin above the upper lip, on the philtrum, and lateral to the philtrum, up to the nasolabial folds, of test subjects and the onset and duration of cooling sensations noted.
The intervals for recording sensations were 5 to 10 minutes, until two successive zeroes were obtained. The results (shown in FIG. 1) are averaged values of 4 to 6 separate trials in the same individual. The data are plotted using SigmaPlot® (Systat Software, Point Richmond, Calif., USA) and a smoothing function with a negative exponential was used for analysis and statistical fit of the results.
The onset of drug action was taken as the time to reach 2 units of coolness intensity, and offset of drug action was the time when coolness intensity drops below 2, after previously surpassing 2 units. The duration of cooling action was defined as the offset time minus the onset time. […] The quality of the sensation was also noted: such as pure refreshing coolness, or if the sensation was accompanied by irritation (stinging or burning). The quality of the sensation was not rated for intensity.
In the results of FIG. 1, the test compounds were singly applied to the skin above the upper lips as a ˜1% wt/vol (10 mg/ml) ointment. Subsequently, for the results shown in Table 3, the test dose on the philtrum was reduced to a 0.5% wt/vol (5 mg/ml) ointment. The reason for choosing a lower dose was to increase the number of trials per individual and to have a reduced chance of substances accumulating in the skin.

Data set [2] deals with ocular surface. Put plainly: Eye wipe test, duration of cooling on ocular surface. Type of data set: in vivo, human. The settings on record: eye wipes 1 mg/ml in 5%-95% v/v ethanol-distilled water. As to the method:
To further document the activities fo the test molecules, the results from an eye wipe test was included. Here the test substance is applied to the closed eyelids with a towelette at a concentration of 1 mg/ml in 5%-ethanol-95%-distilled water vol/vol and the duration of cooling on the ocular surface was recorded. […] It is likely that the mucous membranes that line the ocular surface and the pharynx have similar sensory mechanisms that are somewhat different from the philtrum skin which is keratinized.

Data set [3] concerns pharyngeal surface. Put plainly: Chili-pepper sauce cough challenge test. Type of data set: in vivo, human. Also on record: key: If there is no attenuation of the challenge stimuli, the score is 0; if there is partial inhibition, the score is +; if there is complete attenuation of the cough signal, the score is ++. The settings on record: challenge 45 to 50 min after ODT containing 2 mg of test substance. An excerpt: A number of cough challenge methods have been devised for evoking the cough reflex (Morice et al. Briti. J. Clin. Pharmacol. 52: 365-375, 2001). Usually, citric acid or capsaicin is delivered via the inhalation route to volunteers and the number of coughs counted. […] The chili pepper sauce used here is called Yank Sing® Chili Pepper Sauce (YS Gourmet Productions, Inc., PO Box 26189, San Francisco, Calif. 94126) and is a well-known condiment for use with dim sum (Chinese tea lunch). The sensations associated with the chili pepper sauce are located in the back of the mouth and are clearly recognized and associated with a desire to clear the throat. […] To test for anti-cough activity the ODT with the test substance is first administered onto the dorsal surface of the tongue and 45 to 50 min afterwards the chili-pepper sauce test is administered. If there is no attenuation of the challenge stimuli, the score is 0, if there is partial inhibition, the score is +, and if there is complete attenuation of the cough signal, the score is ++. In the presence of an ODT that results in a ++ score, the irritative signals are completely absent, yet the salty taste used in the soy sauce of the condiment can still be easily tasted. The test substances in the ODT that produced a ++ score were then identified and further tested for effectiveness in the treatment of cough.

Data set [4] deals with cough. Type of data set: in vivo, human. The protocol:
In 20 trials, 10 trials per subject, two mg of 95%+ pure powder of a D-Ala ethyl compound (No. 2 in Table 1, (R)-2-[((1R,2S,5R)-2-isopropyl-5-methyl-cyclohexanecarbonyl)-amino]-propionic acid ethyl ester)) of Formula (1) was placed on the mid-portion of the tongue of these two subjects. Both subjects reported relief from the desire to cough within 1 minute after application. Sensations of robust coolness in the back of the throat was noted and lasted for about 30 minutes. Applications of similar amounts of powdered sugar were not effective. The placebo could be clearly distinguished from the active compound because of the absence of cooling sensations.
A person with a documented 31-year history of asthma attacks volunteered to test one of the compounds falling within Formula (1). They were extremely sensitive to agents such as tobacco smoke, dust, pollen, odors, down/woolen materials, house cleansing products, pets, and sudden change of air temperature, and reacted with violent coughing, mucus secretions, wheezing, choking, and shortness of breath. At the time of this trial, they were taking these medications for their condition: theophylline, Allegra®, Advair®, Intal®, and Singulair®. In 5 trials, during a coughing spree, they placed one to two mg of 95%+ pure powder of a D-Ala ethyl ester (No. 2 in Table 1, ((R)-2-[((1R,2S,5R)-2-isopropyl-5-methyl-cyclohexanecarbonyl)-amino]-propionic acid ethyl ester))) of Formula (1) on the mid-portion of their tongue. They reported a soothing and cool sensation with a slight taste similar to Eucalyptus oil in their mouth and throat. Coughing stopped after 3 to 5 minutes and breathing was normal. […] In three trials when the compound was applied at night, they slept through the night without being awakened by cough. Their spouse remarked that, in over 30 years of marriage, this was the first time that they had seen an effective medication for their cough. They noted that the irritative signals of cough were absent in the presence of the applied chemical, but they still sensed a mechanical build up of secretions in their airways and could voluntarily cough up such secretions if necessary. They continue to use the test compound for management of their asthma, with the knowledge and consent of their physician.
A person had adult-onset asthma for 20 years. Triggers for attacks were tobacco smoke, dust, and changes in air temperature. They used Foradil® (formoterol fumarate) and Asmanex® (mometasone fuorate) twice a day to control their asthma, and monitored their pulmonary function with a portable device for measuring peak expiratory flow. They had daily episodes of both productive and non-productive cough. In 5 trials, when they felt throat irritation and a desire to cough, placement of 1 to 3 mg of (R)-2-[((1R,2S,5R)-2-isopropyl-5-methyl-cyclohexanecarbonyl)-amino]-propionic acid ethyl ester) (No. 2 in Table 1) provided rapid relief and was described as soothing and removed “tightness” in the chest. Peak expiratory flow improved from 320 Umin to 370 Umin. […] The subjective response to the long-acting NACE compound was definitely favourable. The subject remarked that the best time to use the NACE compuound was after inhaling the crystalline Foradil® because this inhaled drug irritated their throat.
ODT containing 2.0 to 2.5 mg of D-Aa Me Ester, D-Ala Et Ester, or D-Ala iPr Ester (identified chemically in Table 1 as No. 1, No. 2, and No. 3, respectively) were prepared using mannitol/maltitol as the excipient and stored in tic-tac boxes each containing 10 tablets. Over a course of two years, 14 adult males with cough tested these tablets. The causes of coughing were colds/flu, allergies, pharyngitis, excessive smoking, and two cases of gastroesophageal reflux. These individuals all had advanced degrees (M.D. or Ph.D.) and were motivated to try the tablets by scientific curiosity or because of financial interests in drug development, or, in several cases, by the annoyance caused by the cough. […]

The subject of data set [5] is oral cavity / oropharynx. The data set can be described thus: Cooling in oral cavity after application on dorsal surface of tongue. The settings on record: 2 to 5 mg on tongue. Type of data set: in vivo, human. As to the method:
The subject is instructed to close and hold the substance in the mouth for at least 10 seconds and not to swallow. The description of sensations is then recorded at 5 to 10 minute intervals.
The compounds of Formula 1 are white crystalline solids at room temperatures. These compounds were tested as the pure powder (>95% purity, by HPLC analysis), or mixed 1:1 with powdered or granulated sugar. The test substances were applied at 2 to 5 mg on the mid-point of the dorsal surface of the tongue using a metal spatula or a plastic applicator. After depositing the test substance on the tongue, the subject was instructed to keep the mouth closed and allow the fluids of the mouth to inter-mix with the test substance and to distribute it to the back of the mouth (oropharynx). The presence and duration of subjective sensations from the mouth was then recorded.

For data set [6], the system named is philtrum skin. The settings on record: ˜10 mg/ml on the skin; as shown in U.S. 20080227857; cited from earlier work.

For `CC(C)OC(=O)[C@@H](C)NC(=O)[C@@H]1C[C@H](C)CC[C@H]1C(C)C` [D-Ala-OiPr, (R)-2-[((1R,2S,5R)-2-isopropyl-5-methyl-cyclohexanecarbonyl)-amino]-propionic acid isopropyl ester], the “Philtrum Skin (min), duration of cooling” value in data set [1] was 34 min. For the same molecule, the “skin or eye irritancy” value in data set [1] (in vivo) is reported as “without skin or eye irritancy”. For the same molecule, in data set [2], the “Eyelids/Ocular Surface (min), duration of cooling” value (shortened to “Eyelids/Ocular Surface (min)”) was 360 min. In data set [3], the “Chili-Pepper Sauce Test” value was “++”. Further, in data set [4] (Study 6, ODT), the “cooling action of ODT on the pharyngeal surface” value is recorded as “robust cooling action”. The “effectiveness in reducing cough” value in data set [4] (Study 6, ODT 2.0 to 2.5 mg, 14 adult males with cough) amounted to 100%.
For the molecule `CCCCOC(=O)C(C)NC(=O)[C@@H]1C[C@H](C)CC[C@H]1C(C)C` (stereo partly drawn) [D-Ala-OnBu], the “Philtrum Skin (min), duration of cooling” value in data set [1] came out at 80 min. Moreover, the “Eyelids/Ocular Surface (min)” value in data set [2] was 40 min. The “Chili-Pepper Sauce Test” value in data set [3] is listed as 0.
The corresponding values for `CCCOC(=O)C(C)NC(=O)[C@@H]1C[C@H](C)CC[C@H]1C(C)C` (stereo partly drawn) [D-Ala-OnPr] are 108 min, 65 min and “+”.
On to `CCCCOC(=O)CNC(=O)[C@@H]1C[C@H](C)CC[C@H]1C(C)C` [Gly-OnBu], for which the “Philtrum Skin (min), duration of cooling” value in data set [1] was 38 min. For the same molecule, the “Eyelids/Ocular Surface (min)” value in data set [2] is on record as 35 min. For the same molecule, the “Chili-Pepper Sauce Test” value in data set [3] was found to be 0.
The corresponding values for `CCCOC(=O)CNC(=O)[C@@H]1C[C@H](C)CC[C@H]1C(C)C` [Gly-OnPr] are 42 min, 54 min and 0.
The corresponding values for `CCOC(=O)C(C)NC(=O)[C@@H]1C[C@H](C)CC[C@H]1C(C)C` (stereo partly drawn) [L-Ala-OiPr] are 27 min, 15 min and 0.
The corresponding values for `CCOC(=O)C(C)NC(=O)[C@@H]1C[C@H](C)CC[C@H]1C(C)C` (stereo partly drawn) [L-Ala-OnBu] are 0 min, 0 min and 0.
Turning to `CCOC(=O)C(C)NC(=O)[C@@H]1C[C@H](C)CC[C@H]1C(C)C` (stereo partly drawn) [L-Ala-OnPr], in data set [1], the “Philtrum Skin (min), duration of cooling” value is reported as 22 min. The “Eyelids/Ocular Surface (min)” value in data set [2] stood at 10 min. The “Chili-Pepper Sauce Test” value in data set [3] is reported as 0.
As to `CCNC(=O)C1CC(C)CCC1C(C)C` (centres unmarked) [WS-3], the “sensory irritation in oral cavity” value in data set [5] is “some sensory irritation”. In addition, the “duration / onset of action on the skin” value in data set [6] is listed as “short duration of action (less than 1 hour) at ˜10 mg/ml on the skin or slow onset (more than 5 minutes)”.
As for `COc1ccc(NC(=O)[C@@H]2C[C@H](C)CC[C@H]2C(C)C)cc1` [WS-12], the “duration / onset of action on the skin” value in data set [6] is given as “short duration of action (less than 1 hour) at ˜10 mg/ml on the skin or slow onset (more than 5 minutes)”.
Regarding `CNC(=O)C(C)(C(C)C)C(C)C` [WS-23], the “sensory irritation in oral cavity” value in data set [5] is “some sensory irritation”. The “duration / onset of action on the skin” value in data set [6] was “short duration of action (less than 1 hour) at ˜10 mg/ml on the skin or slow onset (more than 5 minutes)”.
